Measurements reported in patent US6046331A, “Imidazolones and their use in treating benign prostatic hyperplasia and other disorders” (Synaptic Pharmaceutical Corporation, priority 1998, dated 2000).

Key:
[1] = target: T1, human α1a receptor (Homo sapiens, UniProt P35348); assay: Radioligand binding ([^3 H]prazosin) at cloned human α1a receptor; settings: LM(tk-) cell membranes, read-out: hα1a Ki
T1 construct: The entire coding region of α1a (1401 bp); expressed in transfected cells; host or cells: LM(tk-) mouse fibroblast line L-α1C (old nomenclature), ATCC CR 11140
T1 sequence (P35348 1-466): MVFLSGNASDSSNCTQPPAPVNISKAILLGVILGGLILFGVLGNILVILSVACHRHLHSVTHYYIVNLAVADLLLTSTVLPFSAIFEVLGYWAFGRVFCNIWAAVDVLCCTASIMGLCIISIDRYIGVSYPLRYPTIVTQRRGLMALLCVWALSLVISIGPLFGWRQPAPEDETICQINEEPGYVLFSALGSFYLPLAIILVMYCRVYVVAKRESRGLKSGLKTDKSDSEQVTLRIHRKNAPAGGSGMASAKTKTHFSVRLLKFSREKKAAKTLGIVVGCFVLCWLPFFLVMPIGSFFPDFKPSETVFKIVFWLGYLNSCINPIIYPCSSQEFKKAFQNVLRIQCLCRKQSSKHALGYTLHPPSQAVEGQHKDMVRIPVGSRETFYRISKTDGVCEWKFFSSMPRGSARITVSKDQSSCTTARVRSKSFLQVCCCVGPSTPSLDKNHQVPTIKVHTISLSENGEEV
Protocol: (§1) Binding affinities were measured for selected compounds of the invention at six cloned human α1 and α2 receptor subtypes, as well as at the L-type calcium channel. The protocols for these experiments are given below.
(§2) The activity of compounds at the different human receptors was determined in vitro using cultured cell lines that selectively express the receptor of interest. These cell lines were prepared by transfecting the cloned cDNA or cloned genomic DNA or constructs containing both genomic DNA and cDNA encoding the human α-adrenergic receptors as follows:
α1a Human Adrenergic Receptor: The entire coding region of α1a (1401 bp), including 400 base pairs of 5' untranslated sequence (5' UT) and 200 bp of 3' untranslated sequence (3' UT), was cloned into the KpnI site of the polylinker-modified pCEXV-3-derived eukaryotic expression vector, EXJ.RH. The construct involved ligating three partial overlapping fragments: a 5' 0.6 kb HincII genomic clone, a central 1.8 EcoRI hippocampal cDNA clone, and a 3' 0.6Kb PstI genomic clone. The hippocampal cDNA fragment overlaps with the 5' and 3' genomic clones so that the HincII and PstI sites at the 5' and 3' ends of the cDNA clone, respectively, were utilized for ligation. This full-length clone was cloned into the KpnI site of the expression vector, using the 5' and 3' KpnI sites of the fragment, derived from vector (i.e., pBluescript) and 3'-untranslated sequences, respectively. Stable cell lines were selected as described above. The stable cell line expressing the human α1a receptor used herein was designated L-α1C (old nomenclature) and was deposited with the American Type Culture Collection, 12301 Parklawn Drive, Rockville, Md. 20852, U.S.A. under the provisions of the Budapest Treaty for the International Recognition of the Deposit of Microorganisms for the Purposes of Patent Procedure. The cell line expressing the human α1a receptor was accorded Accession No. CR 11140, on Sep. 25, 1992.
(§3) Radioligand Binding Assays for α1 receptors:
(§4) Transfected cells from culture flasks were scraped into 5 ml of 5 mM Tris-HCl, 5 mM EDTA, pH 7.5, and lysed by sonication. The cell lysates were centrifuged at 1000 rpm for 5 min at 4° C., and the supernatant was centrifuged at 30,000× g for 20 min at 4° C. The pellet was suspended in 50 mM Tris-HCl, 1 mM MgCl2, and 0.1% ascorbic acid at pH 7.5. Binding of the α1 antagonist [^3 H]prazosin (0.5 nM, specific activity 76.2 Ci/mmol) to membrane preparations of LM(tk-) cells was done in a final volume of 0.25 ml and incubated at 37° C. for 20 min. Nonspecific binding was determined in the presence of […] phentolamine. The reaction was stopped by filtration through GF/B filters using a cell harvester. Inhibition experiments, routinely consisting of 7 concentrations of the tested compounds, were analyzed using a non-linear regression curve-fitting computer program to obtain Ki values.
(§5) The compounds described above were assayed using cloned human alpha adrenergic receptors. […] The binding affinities of several compounds are illustrated in the following table.
(§6) Binding affinities of selected compounds of the present invention at cloned human α1d, α1b and α1a receptors. (h=human)

[2] = target: T2, human α1b receptor (Homo sapiens, UniProt P35368); assay: Radioligand binding ([^3 H]prazosin) at cloned human α1b receptor; settings: LM(tk-) cell membranes, read-out: hα1b Ki
T2 construct: The entire coding region of α1b (1563 bp); expressed in transfected cells; host or cells: LM(tk-) mouse fibroblast line L-α1B, ATCC CR 11139
T2 sequence (P35368 1-520): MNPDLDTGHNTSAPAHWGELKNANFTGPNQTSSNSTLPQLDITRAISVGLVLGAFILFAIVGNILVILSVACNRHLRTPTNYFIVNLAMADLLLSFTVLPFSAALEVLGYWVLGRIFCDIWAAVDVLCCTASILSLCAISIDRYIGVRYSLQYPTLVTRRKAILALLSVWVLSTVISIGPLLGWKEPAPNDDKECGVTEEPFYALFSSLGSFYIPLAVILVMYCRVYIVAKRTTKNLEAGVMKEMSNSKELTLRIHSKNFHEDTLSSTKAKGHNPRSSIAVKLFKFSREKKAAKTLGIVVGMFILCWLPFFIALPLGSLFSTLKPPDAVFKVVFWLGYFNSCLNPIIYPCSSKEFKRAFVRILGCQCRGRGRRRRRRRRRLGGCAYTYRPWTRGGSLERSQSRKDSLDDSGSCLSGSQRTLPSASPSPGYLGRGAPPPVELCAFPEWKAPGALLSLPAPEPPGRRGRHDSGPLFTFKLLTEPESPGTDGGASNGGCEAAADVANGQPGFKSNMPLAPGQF
Protocol: as §1, §2
α1b Human Adrenergic Receptor: The entire coding region of α1b (1563 bp), including 200 base pairs and 5' untranslated sequence (5' UT) and 600 bp of 3' untranslated sequence (3' UT), was cloned into the EcoRI site of pCEXV-3 eukaryotic expression vector. The construct involved ligating the full-length containing EcoRI brainstem cDNA fragment from λ ZapII into the expression vector. Stable cell lines were selected as described above. The cell line used herein was designated L-α1B and was deposited with the American Type Culture Collection, 12301 Parklawn Drive, Rockville, Md. 20852, U.S.A. under the provisions of the Budapest Treaty for the International Recognition of the Deposit of Microorganisms for the Purposes of Patent Procedure. The cell line L-α1B was accorded ATCC Accession No. CR 11139, on Sep. 29, 1992.
as §3, §4, §5, §6

SMILES | Ki [1] [µM] | Ki [2] [µM]
COC(=O)c1[nH]c(=O)n(CCCCCN2CCC(C(=O)OC)(c3ccccc3)CC2)c1-c1ccc(F)c(F)c1 [Compound 1, 1-(5-(4-Methoxycarbonyl-4-phenylpiperidin-1-yl)pent-1-yl)-4-methoxycarbonyl-5-(3,4-difluorophenyl)-2,3-dihydro-2(1H)-imidazolone] | 0.0018 | 0.309
COC(=O)c1[nH]c(=O)n(CCCCCN2CCC(C#N)(c3ccccc3)CC2)c1-c1ccc(F)c(F)c1 [Compound 2, 5-(3,4-Difluorophenyl)-2,3-dihydro-4-methoxycarbonyl-1-(5-(4-cyano-4-phenylpiperidin-1-yl)pent-1-yl)-2(1H)-imidazolone] | 0.0041 | 0.347
COC(=O)c1[nH]c(=O)n(CCCCCN2CCC(O)(c3ccccc3)CC2)c1-c1ccc(F)c(F)c1 [Compound 3, 5-(3,4-Difluorophenyl)-2,3-dihydro-4-methoxycarbonyl-1-(5-(4-hydroxy-4-phenylpiperidin-1-yl)pent-1-yl)-2(1H)-imidazolone] | 0.0211 | 1.58
COC(=O)c1[nH]c(=O)n(CCCCCN2CCN(c3ccccc3C(N)=O)CC2)c1-c1cc(F)c(F)c(F)c1 [Compound 4, 1-(5-(4-(2-Aminocarbonylphenyl)piperazin-1-yl)pent-1-yl)-5-(3,4,5-trifluorophenyl)-2,3-dihydro-4-methoxycarbonyl-2(1H)-imidazolone] | 0.0015 | 0.159
COC(=O)c1ccccc1N1CCN(CCCCCn2c(-c3cc(F)c(F)c(F)c3)c(C(=O)OC)[nH]c2=O)CC1 [Compound 5, 5-(3,4,5-Trifluorophenyl)-2,3-dihydro-4-methoxycarbonyl-1-(5-(4-(2-methoxycarbonylphenyl)piperazin-1-yl)pent-1-yl)-2(1H)-imidazolone] | 0.0001 | 0.0117
CCOC(=O)c1[nH]c(=O)n(CCCCCN2CCN(c3ccccc3C(N)=O)CC2)c1-c1ccc(F)c(F)c1 [Compound 6, 1-(5-(4-(2-Aminocarbonylphenyl)piperazin-1-yl)pent-1-yl)-4-ethoxycarbonyl-5-(3,4-difluorophenyl)-2,3-dihydro-2(1H)-imidazolone] | 0.0014 | 0.11
COC(=O)c1[nH]c(=O)n(CCCCCN2CCN(c3ccccc3C(N)=O)CC2)c1-c1cc(F)c(F)cc1F [Compound 7, 1-(5-(4-(2-Aminocarbonylphenyl)piperazin-1-yl)pent-1-yl)-5-(2,4,5-trifluorophenyl)-2,3-dihydro-4-methoxylcarboxy-2(1H)-imidazolone] | 0.0012 | 0.111
COC(=O)c1[nH]c(=O)n(CCCCCN2CCC(C(=O)OC)(c3ccccc3)CC2)c1Cc1ccc(F)c(F)c1 [Compound 37, 5-(3,4-Difluorobenzyl)-2,3-dihydro-4-methoxycarbonyl-1-(5-(4-methoxycarbonyl-4-phenylpiperidin-1-yl)pent-1-yl)-2(1H) -imidazolone] | 0.0045 | 0.558
